Measured values published in PubChem BioAssay AID1963854 (Molecular Pharmacology Branch, DTP, NCI, 2024).

Test system: 186277-243-T-J2-PDC complex spheroid viability
Test: Anticancer human tumor 186277-243-T-J2-PDC patient-derived colon adenocarcinoma cell line growth inhibition [POLQ]
Conditions: for IC50: curve of first compound; for viability, T/C: stronger effect = lower value
Procedure: Multicellular complex tumor spheroid response to Polymerase (POL) inhibitors (novobiocin, ART-558, RP6685) in combination with a variety of drugs and investigational agents in selected tumor cell lines
The POL inhibitors (novobiocin, ART-558, and RP6685) were evaluated both individually and in combination with standard of care and investigational anticancer small molecules within a complex spheroid model of solid tumors. . Complex spheroids include a stromal component modeled by human endothelial cells (HUVEC) and fibroblasts modeled by human mesenchymal stem cells (MSCs). The concentration ranges selected for each drug and investigational agent were based upon clinically achievable concentrations if the clinical Cmax of the agent was known.
Compounds. The drugs and investigational agents: novobiocin (NSC847541), ART-558 (NSC835418), RP-6685 (NSC848927), peposertib (NSC802822), ceralasertib (NSC780249), elimusertib (NSC800525), camonsertib (NSC841442), AZD-1390 (NSC803789), olaparib (NSC753686), talazoparib (NSC767125), rucaparib (NSC756644), sotorasib (NSC818433), MRTX-1133 (NSC836407), SN-38 (NSC673596), topotecan (NSC609699), epotoside (NSC141540), doxorubicin (NSC123127), gemcitabine (NSC613327), 5-fluorouracil (NSC19893), paclitaxel (NSC125973), vemurafenib (NSC761431), MSA-2 (NSC828583), SN-011 (NSC837082), adavosertib (NSC754352), prexasertib (NSC758257), carboplatin (NSC241240) and oxaliplatin (NSC266046), were obtained from the National Cancer Institute (NCI) Developmental Therapeutics Program Chemical Repository (21). The FDA-approved anticancer drug set is available from the Developmental Therapeutics Program at https://dtp.cancer.gov/organization/dscb/obtaining/. […] The stock solutions were prepared in dimethyl sulfoxide (DMSO, Sigma-Aldrich, St. Louis, MO, cat. D2650), except for the platinum compounds which were prepared in saline (Quality Biological, Gaithersburg, MD, cat. 114-055-101), at 800-fold the tested concentration and stored at -70 degrees C prior to their use. All drugs and investigational agents were tested over a range starting from a high concentration at or near the clinical Cmax and decreasing in half-log increments. If the clinical Cmax for an agent had not been determined, the highest concentration tested was 10 microM, except for SN-38, which was tested at a high concentration of 1 microM.
Cell Culture. All cells were maintained in an incubator at 37 degrees C and 5% CO2 with 95% humidity. The PDC lines were cultured according to standard operating procedures established by the NCI PDMR (https://pdmr.cancer.gov). Table 3 of the manuscript, lists the cell lines along with the number of the three cell types plated to form the mct-spheroids and media for tumor cell growth. After thawing, all PDC lines, except 997537-175-T-J1-PDC and 415267-285-R-J2-PDC, were cultured in Matrigel-coated flasks prepared with a working solution of 1X Ham's F-12 nutrient mix, without supplementation (Thermo Fisher Scientific, cat. 11765054), 100 U/mL penicillin-streptomycin (Thermo Fisher Scientific, cat. 15140122), and 2.5% Matrigel (Corning Inc., Corning, NY, cat. 354248) for the first three passages. The two PDC lines 997537-175-T-J1-PDC and 415267-285-R-J2-PDC were cultured on uncoated flasks. The 857933-349-R-J2-PDC line was cultured in 6C/Colon 1B media containing advanced DMEM/F-12 (Thermo Fisher Scientific, cat. 12634028), 10 mM HEPES (Thermo Fisher Scientific, cat. 15630080), 1X GlutaMAX supplement (Thermo Fisher Scientific, cat. 35050061), 0.1 mg/mL primocin (InvivoGen, San Diego, CA, cat. ant-pm-2), 10% defined fetal bovine serum, heat inactivated (HyClone Laboratories Inc., Logan, UT, cat. SH30070.03HI), 50% L-WRN conditioned media (ATCC, cat. CRL-3276), 1.25 mM N-Acetyl-L-cysteine (Sigma-Aldrich, cat. A9165), 10 mM nicotinamide (Sigma-Aldrich, cat. N0636), 1X B-27 supplement (Thermo Fisher Scientific, cat. 17504044), 1X N-2 supplement (Thermo Fisher Scientific, cat. […]

[1] = second compound 0.0316 µM, first compound 0.0316 µM
[2] = second compound 0.0316 µM, first compound 0.1 µM
[3] = second compound 0.0316 µM, first compound 0.316 µM
[4] = second compound 0.0316 µM, first compound 1 µM
[5] = second compound 0.0316 µM, first compound 3.16 µM
[6] = second compound 0.0316 µM, first compound 10 µM
[7] = second compound 0.1 µM, first compound 0.0316 µM
[8] = second compound 0.1 µM, first compound 0.1 µM
[9] = second compound 0.1 µM, first compound 0.316 µM
[10] = second compound 0.1 µM, first compound 1 µM
[11] = second compound 0.1 µM, first compound 3.16 µM
[12] = second compound 0.1 µM, first compound 10 µM
[13] = second compound 0.316 µM, first compound 0.0316 µM
[14] = second compound 0.316 µM, first compound 0.1 µM
[15] = second compound 0.316 µM, first compound 0.316 µM
[16] = second compound 0.316 µM, first compound 1 µM
[17] = second compound 0.316 µM, first compound 3.16 µM
[18] = second compound 0.316 µM, first compound 10 µM
[19] = second compound 1 µM, first compound 0.0316 µM
[20] = second compound 1 µM, first compound 0.1 µM
[21] = second compound 1 µM, first compound 0.316 µM
[22] = second compound 1 µM, first compound 1 µM
[23] = second compound 1 µM, first compound 3.16 µM
[24] = second compound 1 µM, first compound 10 µM
[25] = second compound 3.16 µM, first compound 0.0316 µM
[26] = second compound 3.16 µM, first compound 0.1 µM
[27] = second compound 3.16 µM, first compound 0.316 µM
[28] = second compound 3.16 µM, first compound 1 µM
[29] = second compound 3.16 µM, first compound 3.16 µM
[30] = second compound 3.16 µM, first compound 10 µM
[31] = second compound 10 µM, first compound 0.0316 µM
[32] = second compound 10 µM, first compound 0.1 µM
[33] = second compound 10 µM, first compound 0.316 µM
[34] = second compound 10 µM, first compound 1 µM
[35] = second compound 10 µM, first compound 3.16 µM
[36] = second compound 10 µM, first compound 10 µM
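Further: spheroids exposed to compounds for seven days.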
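Wherever viability, T/C is given: 100% = DMSO vehicle control viability.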

Structure (SMILES): COc1cc(C2c3cc4c(cc3C(OC3OC5COC(C)OC5C(O)C3O)C3COC(=O)C23)OCO4)cc(OC)c1O (centres undefined) + COC1C(OC(N)=O)C(O)C(Oc2ccc3c(O)c(NC(=O)c4ccc(O)c(CC=C(C)C)c4)c(=O)oc3c2C)OC1(C)C
- IC50 (second compound 0.0316 µM): 727 nM
- IC50 (second compound 0.1 µM): 739 nM
- IC50 (second compound 0.316 µM): 659 nM
- IC50 (second compound 1 µM): 662 nM
- IC50 (second compound 3.16 µM): 560 nM
- IC50 (second compound 10 µM): 710 nM
- viability, T/C [1]: 112%
- viability, T/C [2]: 128%
- viability, T/C [3]: 76.6%
- viability, T/C [4]: 40.9%
- viability, T/C [5]: 25.7%
- viability, T/C [6]: 11.6%
- viability, T/C [7]: 98.8%
- viability, T/C [8]: 113%
- viability, T/C [9]: 69.9%
- viability, T/C [10]: 42.1%
- viability, T/C [11]: 27.3%
- viability, T/C [12]: 11.9%
- viability, T/C [13]: 114%
- viability, T/C [14]: 116%
- viability, T/C [15]: 67.9%
- viability, T/C [16]: 39.7%
- viability, T/C [17]: 24.6%
- viability, T/C [18]: 11.8%
- viability, T/C [19]: 118%
- viability, T/C [20]: 120%
- viability, T/C [21]: 65.3%
- viability, T/C [22]: 42.3%
- viability, T/C [23]: 25.5%
- viability, T/C [24]: 12.4%
- viability, T/C [25]: 113%
- viability, T/C [26]: 124%
- viability, T/C [27]: 65.1%
- viability, T/C [28]: 37.6%
- viability, T/C [29]: 25.3%
- viability, T/C [30]: 11.3%
- viability, T/C [31]: 120%
- viability, T/C [32]: 110%
- viability, T/C [33]: 69.6%
- viability, T/C [34]: 40.3%
- viability, T/C [35]: 26.8%
- viability, T/C [36]: 11.8%

Structure (SMILES): COc1cccc2c1C(=O)c1c(O)c3c(c(O)c1C2=O)CC(O)(C(=O)CO)CC3OC1CC(N)C(O)C(C)O1 (centres undefined) + COC1C(OC(N)=O)C(O)C(Oc2ccc3c(O)c(NC(=O)c4ccc(O)c(CC=C(C)C)c4)c(=O)oc3c2C)OC1(C)C
- IC50 (second compound 0.0316 µM): 77.7 nM
- IC50 (second compound 0.1 µM): 88.7 nM
- IC50 (second compound 0.316 µM): 91.6 nM
- IC50 (second compound 1 µM): 92.4 nM
- IC50 (second compound 3.16 µM): 92.1 nM
- IC50 (second compound 10 µM): 86.4 nM
- viability, T/C [1]: 89.2%
- viability, T/C [2]: 38.9%
- viability, T/C [3]: 9.13%
- viability, T/C [4]: 0.32%
- viability, T/C [5]: 0.18%
- viability, T/C [6]: 0.46%
- viability, T/C [7]: 94.1%
- viability, T/C [8]: 44.9%
- viability, T/C [9]: 8.43%
- viability, T/C [10]: 0.24%
- viability, T/C [11]: 0.13%
- viability, T/C [12]: 0.51%
- viability, T/C [13]: 90.7%
- viability, T/C [14]: 46.6%
- viability, T/C [15]: 9.28%
- viability, T/C [16]: 0.18%
- viability, T/C [17]: 0.13%
- viability, T/C [18]: 0.36%
- viability, T/C [19]: 92.1%
- viability, T/C [20]: 46.9%
- viability, T/C [21]: 9.15%
- viability, T/C [22]: 0.2%
- viability, T/C [23]: 0.16%
- viability, T/C [24]: 0.36%
- viability, T/C [25]: 88.9%
- viability, T/C [26]: 47%
- viability, T/C [27]: 8.15%
- viability, T/C [28]: 0.24%
- viability, T/C [29]: 0.2%
- viability, T/C [30]: 0.37%
- viability, T/C [31]: 95.8%
- viability, T/C [32]: 43.3%
- viability, T/C [33]: 8.67%
- viability, T/C [34]: 0.31%
- viability, T/C [35]: 0.31%
- viability, T/C [36]: 0.68%
